Laboratory results taken from paper PMC9781827, “Isolation and Identification of Anti-Inflammatory Peptide from Goose Blood Hydrolysate to Ameliorate LPS-Mediated Inflammation and Oxidative Stress in RAW264.7 Macrophages” (Molecules, 2022).
Values joined by “and” are separate entries in the source; they are usually repeats but may differ in a detail not shown here. Equal values may be shown once.

Tests used:
[1] = tested on: SOD; assay: SOD activity in LPS-mediated RAW264.7 macrophages; type: cell-based; details: LPS alone; mean ± S.D., n = 3
Description: The culture medium was collected and centrifuged at 3000× g for 10 min. Then, the inflammatory cytokines levels of TNF-α (MB-50051A), IL-1β (MB-50064B) and IL-6 (MB-50054A) in the culture medium were determined with ELISA kits (Jiangsu Enzyme marker Biotechnology Co., Ltd., Yancheng, China). […] (7) Add 50 μL of stop solution to each well, and measure its absorbance value at 450 nm wavelength. The activities of SOD, GSH-Px and the levels of ROS and Nitric oxide (NO) in macrophages were determined with spectrophotometric kits. […] The absorbance value of miscible liquid was measured at 450 nm wavelength by a multifunctional microplate reader; GSH-Px: 0.2 mL of sample was mixed with 0.2 mL GSH-Px (1 mmol/L) and performed at 37 °C for 5 min. […] The absorbance value was measured at 412 nm wavelength by a multifunctional microplate reader; ROS: DCFH-DA probe was added directly to serum-free medium: DCFH-DA was generally diluted with serum-free medium at a final concentration of 10 µM at 1:1000. […] In general, obvious green fluorescence can be observed in positive control cells after 20 min of stimulation. […] It can also be detected according to FITC fluorescence detection conditions. The results were expressed as fluorescence values.

[2] = tested on: TNF-α; assay: TNF-α level by ELISA in culture medium, model of LPS-mediated RAW264.7 macrophage inflammation; type: cell-based; details: LPS group: LPS (1.0 μg/mL) alone, 24 h; mean ± S.D., n = 3
Description: The anti-inflammatory activity of the peptides was determined according to the methods of a previous study. The anti-inflammatory activity of different fractions was evaluated by measuring the levels of the inflammatory cytokines (TNF-α, IL-1β and IL-6) in a model of LPS-induced macrophage inflammation with ELISA kits (Jiangsu Enzyme marker Biotechnology Co., Ltd., Yancheng, China). […] A 20 mmol/L Tris-HCl (pH 8.0) solution was used as the start buffer and 20 mmol/L Tris-HCl/1 mol/L NaCl (pH 8.0) was used as elution buffer. Elution program: (1) wash with 5 column volumes of starting buffer; (2) elute with 10 column volumes of 50% elution buffer and 50% start buffer; (3) elute with 5 column volumes of 100% elution buffer. The above flow rates were 5 mL/min. The fractions were detected at 280 nm by an ultraviolet detector and collected by an automatic fraction collector.
The method of RAW264.7 macrophage culture and treatments were based on the study of Li et al.. […] Macrophages from passages 5 to 10 were selected to seed on 96-well culture plates at a density of 4 × 10^5 cells/well and cultured with different concentrations of LPS (0.5 μg/mL, 1.0 μg/mL and 2.0 μg/mL) for 24 h. The optimal concentration of LPS for inducing inflammation in the RAW264.7 macrophage was ensured according to cell viability. […] The ability of GBP to protect RAW264.7 macrophages was evaluated. […]

lipopolysaccharide [LPS]
level of SOD [1]: 24.43 ± 1.41 U/mg prot
level of TNF-α [2]: 271.35 ± 17.35 pg/mL and 273.77 ± 11.93 pg/mL
